Test results: PubChem BioAssay (NCI)
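Tested at 5 concentrations; 48 h exposure; 96-well plates; endpoints linearly interpolated, else capped at highest concentration. GI50 is the concentration that inhibits growth by half. TGI denotes the concentration required for complete inhibition of growth.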

What was measured:
Test in all cases: growth of human tumour cells (NCI), 48 h
A498 renal = system: A498 renal
A549 NSCLC = system: A549 NSCLC
ACHN renal = system: ACHN renal
CCRF-CEM leukemia = system: CCRF-CEM leukemia
COLO 205 colon = system: COLO 205 colon
DLD-1 colon = system: DLD-1 colon
DMS 114 small cell lung = system: DMS 114 small cell lung
DMS 273 small cell lung = system: DMS 273 small cell lung
EKVX NSCLC = system: EKVX NSCLC
HCC-2998 colon = system: HCC-2998 colon
HCT-116 colon = system: HCT-116 colon
HCT-15 colon = system: HCT-15 colon
HL-60(TB) leukemia = system: HL-60(TB) leukemia
HOP-62 NSCLC = system: HOP-62 NSCLC
HOP-92 NSCLC = system: HOP-92 NSCLC
HT29 colon = system: HT29 colon
IGROV1 ovarian = system: IGROV1 ovarian
KM12 colon = system: KM12 colon
KM20L2 colon = system: KM20L2 colon
LOX IMVI melanoma = system: LOX IMVI melanoma
LXFL 529 NSCLC = system: LXFL 529 NSCLC
M14 melanoma = system: M14 melanoma
M19-MEL melanoma = system: M19-MEL melanoma
MALME-3M melanoma = system: MALME-3M melanoma
MOLT-4 leukemia = system: MOLT-4 leukemia
NCI-H226 lung = system: NCI-H226 lung
NCI-H23 lung = system: NCI-H23 lung
NCI-H460 lung = system: NCI-H460 lung
NCI-H522 lung = system: NCI-H522 lung
OVCAR-3 ovarian = system: OVCAR-3 ovarian
OVCAR-4 ovarian = system: OVCAR-4 ovarian
OVCAR-5 ovarian = system: OVCAR-5 ovarian
OVCAR-8 ovarian = system: OVCAR-8 ovarian
RPMI-8226 leukemia = system: RPMI-8226 leukemia
RXF 393 renal = system: RXF 393 renal
SF-268 CNS = system: SF-268 CNS
SF-295 CNS = system: SF-295 CNS
SF-539 CNS = system: SF-539 CNS
SK-MEL-2 melanoma = system: SK-MEL-2 melanoma
SK-MEL-28 melanoma = system: SK-MEL-28 melanoma
SK-MEL-5 melanoma = system: SK-MEL-5 melanoma
SK-OV-3 ovarian = system: SK-OV-3 ovarian
SN12C renal = system: SN12C renal
SNB-19 CNS = system: SNB-19 CNS
SNB-75 CNS = system: SNB-75 CNS
SNB-78 CNS = system: SNB-78 CNS
SR leukemia = system: SR leukemia
SW-620 colon = system: SW-620 colon
TK-10 renal = system: TK-10 renal
U251 CNS = system: U251 CNS
UACC-257 melanoma = system: UACC-257 melanoma
UACC-62 melanoma = system: UACC-62 melanoma
XF 498 CNS = system: XF 498 CNS
786-0 renal = system: 786-0 renal
CAKI-1 renal = system: CAKI-1 renal
K-562 leukemia = system: K-562 leukemia
UO-31 renal = system: UO-31 renal

`NCCSCC(N)C(=O)O` (centres undefined) gave a TGI (A498 renal) of over 497 µM, a GI50 (A549 NSCLC) of over 497 µM and a TGI (A549 NSCLC) of over 497 µM. It also gave a GI50 (ACHN renal) of over 497 µM, a TGI (ACHN renal) of over 497 µM and a GI50 (CCRF-CEM leukemia) of over 497 µM. It also gave a TGI (CCRF-CEM leukemia) of over 497 µM, a GI50 (COLO 205 colon) of over 497 µM and a TGI (COLO 205 colon) of over 497 µM. The TGI (DLD-1 colon) was over 497 µM, the TGI (DMS 114 small cell lung) was over 497 µM and the TGI (DMS 273 small cell lung) was over 497 µM. For the same compound, the TGI (EKVX NSCLC) was over 497 µM, the TGI (HCC-2998 colon) was over 497 µM and the GI50 (HCT-116 colon) was over 497 µM. For the same compound, the TGI (HCT-116 colon) was over 497 µM, the GI50 (HCT-15 colon) was over 497 µM and the TGI (HCT-15 colon) was over 497 µM. The TGI (HL-60(TB) leukemia) was over 497 µM, the TGI (HOP-62 NSCLC) was over 497 µM and the TGI (HOP-92 NSCLC) was over 497 µM. The GI50 (HT29 colon) was over 497 µM, the TGI (HT29 colon) was over 497 µM and the GI50 (IGROV1 ovarian) was over 497 µM. For the same compound, the TGI (IGROV1 ovarian) was over 497 µM, the GI50 (KM12 colon) was over 497 µM and the TGI (KM12 colon) was over 497 µM. For the same compound, the TGI (KM20L2 colon) was over 497 µM, the TGI (LOX IMVI melanoma) was over 497 µM and the TGI (LXFL 529 NSCLC) was over 497 µM. It also gave a TGI (M14 melanoma) of over 497 µM, a TGI (M19-MEL melanoma) of over 497 µM and a GI50 (MALME-3M melanoma) of over 497 µM. For the same compound, the TGI (MALME-3M melanoma) was over 497 µM, the TGI (MOLT-4 leukemia) was over 497 µM and the TGI (NCI-H226 lung) was over 497 µM. It also gave a TGI (NCI-H23 lung) of over 497 µM, a GI50 (NCI-H460 lung) of over 497 µM and a TGI (NCI-H460 lung) of over 497 µM. For the same compound, the GI50 (NCI-H522 lung) was over 497 µM, the TGI (NCI-H522 lung) was over 497 µM and the GI50 (OVCAR-3 ovarian) was over 497 µM. It also gave a TGI (OVCAR-3 ovarian) of over 497 µM, a TGI (OVCAR-4 ovarian) of over 497 µM and a TGI (OVCAR-5 ovarian) of over 497 µM. It also gave a TGI (OVCAR-8 ovarian) of over 497 µM, a GI50 (RPMI-8226 leukemia) of over 497 µM and a TGI (RPMI-8226 leukemia) of over 497 µM. The TGI (RXF 393 renal) was over 497 µM, the TGI (SF-268 CNS) was over 497 µM and the TGI (SF-295 CNS) was over 497 µM. The TGI (SF-539 CNS) was over 497 µM, the TGI (SK-MEL-2 melanoma) was over 497 µM and the TGI (SK-MEL-28 melanoma) was over 497 µM. It also gave a GI50 (SK-MEL-5 melanoma) of over 497 µM, a TGI (SK-MEL-5 melanoma) of over 497 µM and a TGI (SK-OV-3 ovarian) of over 497 µM. For the same compound, the TGI (SN12C renal) was over 497 µM, the TGI (SNB-19 CNS) was over 497 µM and the GI50 (SNB-75 CNS) was 470 µM. For the same compound, the TGI (SNB-75 CNS) was over 497 µM, the TGI (SNB-78 CNS) was over 497 µM and the TGI (SR leukemia) was over 497 µM. The GI50 (SW-620 colon) was over 497 µM, the TGI (SW-620 colon) was over 497 µM and the TGI (TK-10 renal) was over 497 µM. It also gave a TGI (U251 CNS) of over 497 µM, a TGI (UACC-257 melanoma) of over 497 µM and a TGI (UACC-62 melanoma) of over 497 µM. For the same compound, the TGI (XF 498 CNS) was over 497 µM.

For `C=CCN1C(=O)C(=O)N(CC=C)C(=O)C1=O`, the TGI (786-0 renal) was over 100 µM, the TGI (A498 renal) was over 100 µM and the TGI (A549 NSCLC) was over 100 µM. For the same compound, the TGI (CAKI-1 renal) was over 100 µM, the TGI (CCRF-CEM leukemia) was over 100 µM and the TGI (COLO 205 colon) was over 100 µM. For the same compound, the TGI (DLD-1 colon) was over 100 µM, the TGI (DMS 114 small cell lung) was over 100 µM and the TGI (DMS 273 small cell lung) was over 100 µM. It also gave a TGI (EKVX NSCLC) of over 100 µM, a TGI (HCC-2998 colon) of over 100 µM and a TGI (HCT-116 colon) of over 100 µM. For the same compound, the TGI (HCT-15 colon) was over 100 µM, the TGI (HL-60(TB) leukemia) was over 100 µM and the TGI (HOP-62 NSCLC) was over 100 µM. The TGI (HOP-92 NSCLC) was over 100 µM, the TGI (HT29 colon) was over 100 µM and the TGI (IGROV1 ovarian) was over 100 µM. The TGI (K-562 leukemia) was over 100 µM, the TGI (KM12 colon) was over 100 µM and the TGI (KM20L2 colon) was over 100 µM. For the same compound, the TGI (LOX IMVI melanoma) was over 100 µM, the TGI (LXFL 529 NSCLC) was over 100 µM and the TGI (M14 melanoma) was over 100 µM. The TGI (M19-MEL melanoma) was over 100 µM, the TGI (MALME-3M melanoma) was over 100 µM and the TGI (MOLT-4 leukemia) was over 100 µM. It also gave a TGI (NCI-H226 lung) of over 100 µM, a TGI (NCI-H23 lung) of over 100 µM and a TGI (NCI-H460 lung) of over 100 µM. It also gave a TGI (NCI-H522 lung) of over 100 µM, a TGI (OVCAR-3 ovarian) of over 100 µM and a TGI (OVCAR-4 ovarian) of over 100 µM. The TGI (OVCAR-5 ovarian) was over 100 µM, the TGI (OVCAR-8 ovarian) was over 100 µM and the TGI (RPMI-8226 leukemia) was over 100 µM. It also gave a TGI (RXF 393 renal) of over 100 µM, a TGI (SF-268 CNS) of over 100 µM and a TGI (SF-295 CNS) of over 100 µM. The TGI (SF-539 CNS) was over 100 µM, the TGI (SK-MEL-5 melanoma) was over 100 µM and the TGI (SK-OV-3 ovarian) was over 100 µM. For the same compound, the TGI (SN12C renal) was over 100 µM, the TGI (SNB-19 CNS) was over 100 µM and the TGI (SNB-75 CNS) was over 100 µM. For the same compound, the TGI (SNB-78 CNS) was over 100 µM, the TGI (SR leukemia) was over 100 µM and the TGI (SW-620 colon) was over 100 µM. The TGI (TK-10 renal) was over 100 µM, the TGI (U251 CNS) was over 100 µM and the TGI (UACC-257 melanoma) was over 100 µM. For the same compound, the TGI (UACC-62 melanoma) was over 100 µM, the TGI (UO-31 renal) was over 100 µM and the TGI (XF 498 CNS) was over 100 µM.
